Measured values taken from ChEMBL document CHEMBL1149568, “Design, synthesis, and molecular modeling studies of 5'-deoxy-5'-ureidoadenosine: 5'-ureido group as multiple hydrogen bonding donor in the active site of S-adenosylhomocysteine hydrolase” (Bioorg Med Chem Lett, 2007).

Molecular target: Adenosylhomocysteinase (Homo sapiens, UniProt P23526)
Experiment: Inhibition of human recombinant placental SAH

Sequence of Adenosylhomocysteinase (P23526 whole entry): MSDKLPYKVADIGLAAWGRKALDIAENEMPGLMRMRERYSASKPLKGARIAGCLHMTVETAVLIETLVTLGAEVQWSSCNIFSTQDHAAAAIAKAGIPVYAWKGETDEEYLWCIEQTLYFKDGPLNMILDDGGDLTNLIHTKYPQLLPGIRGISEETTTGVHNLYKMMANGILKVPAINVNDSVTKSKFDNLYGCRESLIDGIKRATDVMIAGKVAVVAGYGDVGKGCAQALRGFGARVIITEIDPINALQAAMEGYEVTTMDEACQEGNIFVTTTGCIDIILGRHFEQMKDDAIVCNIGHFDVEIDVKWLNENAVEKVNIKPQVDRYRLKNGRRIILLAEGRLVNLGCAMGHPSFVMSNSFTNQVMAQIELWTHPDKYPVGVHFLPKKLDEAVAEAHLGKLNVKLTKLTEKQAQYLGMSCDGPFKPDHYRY

| IC50 [µM] | SMILES |
| --- | --- |
| 75 | NC[C@H]1O[C@@H](n2cnc3c(N)ncnc32)[C@H](O)[C@@H]1O |
| 7.53 | NC(=O)NC[C@H]1O[C@@H](n2cnc3c(N)ncnc32)[C@H](O)[C@@H]1O |
| 28.9 | [N-]=[N+]=NC[C@H]1O[C@@H](n2cnc3c(N)ncnc32)[C@H](O)[C@@H]1O |
